Results on 16 compounds are retold here after ChEMBL document CHEMBL3875190, “MARK inhibitors: Declaring a No-Go decision on a chemical series based on extensive DMPK experimentation” (Bioorg Med Chem Lett, 2017).

The nature of data set [1]: Total plasma clearance in rat. In kind it is ADME, cell-free.
Data set [2] is described as follows: Partition coefficient, logD of compound at pH 7 by HPLC analysis. In kind it is physicochemical. As to conditions: octanol/water.
Data set [3] in a line: Volume of distribution in rat. In kind it is ADME. As to conditions: in vivo.
The target of data set [4] is MAP/microtubule affinity-regulating kinase 3 (Homo sapiens, UniProt P27448). Description: Inhibition of MARK3 (unknown origin).
MAP/microtubule affinity-regulating kinase 3, sequence (P27448 whole entry): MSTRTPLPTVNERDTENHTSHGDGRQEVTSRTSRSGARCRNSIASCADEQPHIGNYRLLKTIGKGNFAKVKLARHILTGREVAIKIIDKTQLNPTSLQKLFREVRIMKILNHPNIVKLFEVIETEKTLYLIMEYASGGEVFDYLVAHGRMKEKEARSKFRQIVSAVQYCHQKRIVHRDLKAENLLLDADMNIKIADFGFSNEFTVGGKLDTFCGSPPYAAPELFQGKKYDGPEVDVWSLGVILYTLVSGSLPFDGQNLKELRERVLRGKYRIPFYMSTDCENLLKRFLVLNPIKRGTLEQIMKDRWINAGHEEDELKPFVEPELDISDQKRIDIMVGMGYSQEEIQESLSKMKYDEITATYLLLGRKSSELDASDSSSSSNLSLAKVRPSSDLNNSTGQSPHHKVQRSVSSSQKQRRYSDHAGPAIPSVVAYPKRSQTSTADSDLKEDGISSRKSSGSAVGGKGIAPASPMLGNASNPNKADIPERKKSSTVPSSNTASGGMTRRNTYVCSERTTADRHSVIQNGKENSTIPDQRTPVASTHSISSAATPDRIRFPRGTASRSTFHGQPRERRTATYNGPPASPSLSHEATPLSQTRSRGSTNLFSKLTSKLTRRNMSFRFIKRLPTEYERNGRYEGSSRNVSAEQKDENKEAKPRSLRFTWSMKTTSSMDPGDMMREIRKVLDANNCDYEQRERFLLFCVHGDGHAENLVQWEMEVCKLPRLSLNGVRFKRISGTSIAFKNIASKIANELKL
Data set [5] in a line: Half life in rat liver microsomes. Format: ADME. In general terms: Microsomes from liver hold many membrane-bound enzymes, among them those of drug oxidation.
Data set [6] can be described thus: Half life in human liver microsomes. In kind it is ADME.
A short description of data set [7]: Half life in dog liver microsomes. In kind it is ADME, Canis lupus familiaris.
The nature of data set [8]: Total plasma clearance in dog. Format: ADME, cell-free, Canis lupus familiaris.
Data set [9] in a line: Drug excretion in bile duct-cannulated rat urine after 8 hrs by chromatographic analysis. Format: ADME. The following applies: read-out: Drug excretion.
A short description of data set [10]: Drug excretion in bile duct-cannulated rat bile after 8 hrs by chromatographic analysis. In kind it is ADME, tissue-based. As to conditions: read-out: Drug excretion.
The nature of data set [11]: Drug recovery in bile duct-cannulated rat urine after 8 hrs by chromatographic analysis. In kind it is ADME. As to conditions: read-out: Drug recovery.
Data set [12] in a line: Drug recovery in bile duct-cannulated rat bile after 8 hrs by chromatographic analysis. In kind it is ADME, tissue-based. As to conditions: read-out: Drug recovery.
Data set [13] can be described thus: Stability in rat liver cytosol. Format: ADME.
A short description of data set [14]: Stability in human liver cytosol. In kind it is ADME.
Data set [15] is described as follows: Drug metabolism in rat hepatocytes assessed as oxidation. In kind it is ADME, cell-based, Hepatocyte.
Data set [16] is described as follows: Drug metabolism in rat hepatocytes assessed as glucuronidation. Format: ADME, cell-based, Hepatocyte.
The nature of data set [17]: Drug metabolism in rat liver microsomes assessed as oxidative metabolite formation. In kind it is ADME.
Data set [18] in a line: Drug metabolism in rat liver microsomes assessed as lactam hydrolysis. In kind it is ADME.
Data set [19] can be described thus: Drug metabolism in human liver microsomes assessed as oxidative metabolite formation. Format: ADME.
The nature of data set [20]: Drug metabolism in human liver microsomes assessed as lactam hydrolysis. In kind it is ADME.

Some results are limits rather than exact numbers.

In turn, `CC1(C)C(=O)N(C2CCCCC2)c2nc(Nc3cccnc3)ncc21` returned a clearance in [1] of 47 mL/min/kg. In data set [2], this compound had a logD of 2.82. The compound also returned a Vd in [3] of 2.8 L/kg.
In [1], `CC(=O)N1CCC(N2C(=O)C(C)(C)c3cnc(Nc4ccc(F)cc4)nc32)CC1` showed a clearance of 37 mL/min/kg. Moreover, in data set [2], the logD came to 2.5. Also, the Vd in data set [3] is 1.6 L/kg. This compound registered an IC50 in data set [4] of 2800 nM. The half-life in [5] was greater than 60 min; in [6] it was 51 min.
In data set [1], `CC[C@H](C)N1C(=O)C(C)(C)c2cnc(Nc3ccc(CN4CC(C)OC(C)C4)cc3)nc21` (stereo partly specified) returned a clearance of 269 mL/min/kg. Moreover, the logD in data set [2] turned out to be 3.98. Besides, the Vd in data set [3] was found to be 14 L/kg.
Compound `CC[C@H](C)N1C(=O)C(C)(C)c2cnc(Nc3ccc(-c4nnc(C)[nH]4)cc3)nc21` displayed a pH-dependent lipophilicity (logD) in [2] of 2.21. In data set [4], this compound showed an IC50 of 80 nM. For the same compound, the figures for the half-life in data set [5] and in data set [7] were 50 min and 80 min, respectively. In [8], the clearance worked out at 10 mL/min/kg.
In [1], `C[C@@H](c1ccc(F)cc1)N1C(=O)C(C)(C)c2cnc(Nc3cccnc3)nc21` showed a clearance of 154 mL/min/kg. The logD in data set [2] was found to be 2.81. Besides, in [3], the Vd is 6.8 L/kg.
In data set [1], `CC[C@H](C)N1C(=O)C(C)(C)c2cnc(Nc3ccc(CNC4CCCOC4)cc3)nc21` (stereo partly specified) gave a clearance of 188 mL/min/kg. This compound came in with a logD in [2] of 2.79. Also, the Vd in [3] is 96 L/kg.
`[3H]c1nc(Nc2cccnc2)nc2c1C(C)(C)C(=O)N2[C@H](C)CC`: the dose excreted at 8 h in [9] is greater than 95%; in [10] it was greater than 95%; in data set [11] it was 60 to 90%; in [12] it was 60 to 90%. For the same compound, the Stability result in data set [13] and in data set [14] was “Stable” throughout.
`CC[C@H](C)N1C(=O)C(C)(C)c2cnc(Nc3cccnc3)nc21`: the logD in data set [2] was 2.56. In [3], the Vd stood at 5.2 L/kg.
In turn, `CC(=O)N1CCC(N2C(=O)C(C)(C)c3cnc(Nc4cccnc4)nc32)CC1` returned a clearance in data set [1] of 11 mL/min/kg. In data set [2], this compound gave a logD of 1.18. The compound further yielded a Vd in data set [3] of 1.4 L/kg. The midpoint of inhibition in [4], the IC50, lay at 2100 nM. In addition, the half-life in data set [5] and in data set [6] was greater than 60 min in each case.
With `CC1(C)C(=O)N([C@H]2CCc3c(O)cccc32)c2nc(Nc3ccccc3)ncc21`, the Drug metabolism result in data set [15] and in data set [16] was “Metabolite_Detected” throughout.
With `CC[C@H](C)N1C(=O)C(C)(C)c2cnc(Nc3ccc(CN4CCN(C)CC4)cc3)nc21`, the clearance in [1] came to 65 mL/min/kg. In addition, the logD in [2] worked out at 2.54. This compound also returned a Vd in data set [3] of 35 L/kg.
As for `CC1(C)C(=O)N(C2CCCCC2)c2nc(Nc3cccc(CN4CCOCC4)c3)ncc21`, the Drug metabolism entry in data set [17], in data set [18], in data set [19] and in [20] was “Metabolite_Detected” throughout.
`CC(=O)N1CCC(N2C(=O)C(C)(C)c3cnc(Nc4ccccc4)nc32)CC1` displayed a clearance in data set [1] of 37 mL/min/kg. The compound also yielded a logD in data set [2] of 1.6. This compound also displayed a Vd in data set [3] of 1.1 L/kg. For the same compound, the half-life in [5] came to 38 min; in [6], 30 min.
In the case of `CC[C@H](C)N1C(=O)C2(CC2)c2cnc(Nc3cccnc3)nc21`, the Drug metabolism entry in data set [15] is on record as “Metabolite_Detected”. In data set [1], the clearance was found to be 81 mL/min/kg. In addition, the log distribution coefficient (logD) in data set [2] turned out to be 2.3. The distribution volume (Vd) in [3] worked out at 2.9 L/kg. This compound came in with an IC50 in data set [4] of 60 nM. The compound further registered a half-life in [5] of 25 min.
For the compound `CC[C@H](C)N1C(=O)C(C)(C)c2cnc(Nc3ccc(CN4CCC(=O)N(C)CC4)cc3)nc21`, in [1], the clearance is 135 mL/min/kg. The compound further came in with a logD in [2] of 2.68. The compound also displayed a distribution volume (Vd) in data set [3] of 3 L/kg.
`CC[C@H](C)N1C(=O)C(C)(C)c2cnc(Nc3ccc(S(C)(=O)=O)cc3)nc21`: the clearance stood at 84 mL/min/kg in data set [1] and 3 mL/min/kg in data set [8]. In addition, the logD in data set [2] stood at 3.09. 120 nM corresponded to half-maximal inhibition in [4] (IC50). The half-life worked out at 26 min in [5] and 80 min in [7].

A word on the clearance: it is the volume of plasma or blood freed of the substance per unit of time. A low value points to inefficient removal. As a reminder, the logD is the decadic logarithm of the distribution of all forms, ionised or not, between an organic phase and buffer at a given pH. Low values mean lower lipophilicity, high ones higher lipophilicity. By Vd is commonly meant the apparent volume that relates the amount in the body to the concentration in plasma or blood. Higher therefore signals extensive tissue distribution. In general, IC50 refers to the point on the concentration scale where inhibition reaches its midpoint. Lower therefore signals greater potency. What is called half-life is the time needed for the level to fall by half in the phase considered. Low values mean rapid decline, high ones slow decline.
